Measured values taken from the NIST ThermoML archive (doi:10.1021/je200421s).
Numbers after ± are expanded uncertainties.

Assays:
[1] = mn = molality of the nth substance listed, in mol/kg; details: 101 kPa, Liquid, Vibrating tube method
[2] = refractive index (Na D-line) (dimensionless); mn = molality of the nth substance listed, in mol/kg; details: 298.15 K, 101 kPa, Liquid, Standard Abbe refractometry

Row | Structure (SMILES) | mass density ([1]; 288.15 K, m1 = 0.05) [kg/m3] | mass density ([1]; 288.15 K, m1 = 0.1) [kg/m3] | mass density ([1]; 288.15 K, m1 = 0.2) [kg/m3] | mass density ([1]; 288.15 K, m1 = 0.3) [kg/m3] | mass density ([1]; 288.15 K, m1 = 0.5) [kg/m3] | mass density ([1]; 288.15 K, m1 = 0.8) [kg/m3] | mass density ([1]; 293.15 K, m1 = 0.05) [kg/m3] | mass density ([1]; 293.15 K, m1 = 0.1) [kg/m3] | mass density ([1]; 293.15 K, m1 = 0.2) [kg/m3] | mass density ([1]; 293.15 K, m1 = 0.3) [kg/m3] | mass density ([1]; 293.15 K, m1 = 0.5) [kg/m3] | mass density ([1]; 293.15 K, m1 = 0.8) [kg/m3] | mass density ([1]; 298.15 K, m1 = 0.05) [kg/m3] | mass density ([1]; 298.15 K, m1 = 0.1) [kg/m3] | mass density ([1]; 298.15 K, m1 = 0.2) [kg/m3] | mass density ([1]; 298.15 K, m1 = 0.3) [kg/m3] | mass density ([1]; 298.15 K, m1 = 0.5) [kg/m3] | mass density ([1]; 298.15 K, m1 = 0.8) [kg/m3] | mass density ([1]; 303.15 K, m1 = 0.05) [kg/m3] | mass density ([1]; 303.15 K, m1 = 0.1) [kg/m3] | also measured
1 | O=C[C@H](O)[C@@H](O)[C@H](O)[C@H](O)CO [D-glucose] + O | 1002.58 ± 0.51 | 1006 ± 0.51 | 1012.64 ± 0.51 | 1019.21 ± 0.51 | 1031.87 ± 0.51 | 1050.04 ± 0.51 | 1001.65 ± 0.51 | 1005.04 ± 0.51 | 1011.63 ± 0.51 | 1018.15 ± 0.51 | 1030.73 ± 0.51 | 1048.76 ± 0.51 | 1000.46 ± 0.51 | 1003.84 ± 0.51 | 1010.38 ± 0.51 | 1016.85 ± 0.51 | 1029.34 ± 0.51 | 1047.27 ± 0.51 | 999.043 ± 0.51 | 1002.39 ± 0.51 | mass density ([1]; 303.15 K, m1 = 0.3): 1015.33 ± 0.51 kg/m3; mass density ([1]; 303.15 K, m1 = 0.5): 1027.75 ± 0.51 kg/m3; mass density ([1]; 303.15 K, m1 = 0.8): 1045.58 ± 0.51 kg/m3; mass density ([1]; 308.15 K, m1 = 0.1): 1000.75 ± 0.51 kg/m3; mass density ([1]; 308.15 K, m1 = 0.3): 1013.63 ± 0.51 kg/m3; mass density ([1]; 308.15 K, m1 = 0.5): 1025.96 ± 0.51 kg/m3; mass density ([1]; 308.15 K, m1 = 0.8): 1043.7 ± 0.51 kg/m3; refractive index ([2]; m1 = 0.05): 1.3331 ± 0.0007; refractive index ([2]; m1 = 0.1): 1.3343 ± 0.0007; refractive index ([2]; m1 = 0.2): 1.3368 ± 0.0007; refractive index ([2]; m1 = 0.3): 1.3392 ± 0.0007; refractive index ([2]; m1 = 0.5): 1.3443 ± 0.0007; refractive index ([2]; m1 = 0.8): 1.351 ± 0.0007
2 | OC[C@H]1O[C@@](CO)(O[C@H]2O[C@H](CO)[C@@H](O)[C@H](O)[C@H]2O)[C@@H](O)[C@@H]1O [D-sucrose] + O | 1005.67 ± 0.52 | 1012.18 ± 0.52 | 1024.44 ± 0.52 | 1036.52 ± 0.52 | 1059.36 ± 0.51 | 1089.54 ± 0.51 | 1004.73 ± 0.52 | 1011.2 ± 0.52 | 1023.38 ± 0.52 | 1035.39 ± 0.52 | 1058.1 ± 0.51 | 1088.1 ± 0.51 | 1003.53 ± 0.52 | 1009.97 ± 0.52 | 1022.08 ± 0.52 | 1034.03 ± 0.52 | 1056.62 ± 0.51 | 1086.46 ± 0.51 | 1002.11 ± 0.52 | 1008.5 ± 0.52 | mass density ([1]; 303.15 K, m1 = 0.2): 1020.57 ± 0.52 kg/m3; mass density ([1]; 303.15 K, m1 = 0.3): 1032.45 ± 0.52 kg/m3; mass density ([1]; 303.15 K, m1 = 0.5): 1054.93 ± 0.51 kg/m3; mass density ([1]; 303.15 K, m1 = 0.8): 1084.64 ± 0.51 kg/m3; mass density ([1]; 308.15 K, m1 = 0.05): 1000.46 ± 0.52 kg/m3; mass density ([1]; 308.15 K, m1 = 0.1): 1006.83 ± 0.52 kg/m3; mass density ([1]; 308.15 K, m1 = 0.2): 1018.84 ± 0.52 kg/m3; mass density ([1]; 308.15 K, m1 = 0.3): 1030.68 ± 0.52 kg/m3; mass density ([1]; 308.15 K, m1 = 0.5): 1053.07 ± 0.51 kg/m3; mass density ([1]; 308.15 K, m1 = 0.8): 1082.65 ± 0.51 kg/m3; refractive index ([2]; m1 = 0.05): 1.3343 ± 0.0007; refractive index ([2]; m1 = 0.1): 1.3368 ± 0.0007; refractive index ([2]; m1 = 0.2): 1.3415 ± 0.0007; refractive index ([2]; m1 = 0.3): 1.3458 ± 0.0007; refractive index ([2]; m1 = 0.5): 1.3542 ± 0.0007; refractive index ([2]; m1 = 0.8): 1.3656 ± 0.0007
